Assay results as given in patent US8071612B2, “6-alkenyl and 6-phenylalkyl substituted 2-quinolinones and 2-quinoxalinones as poly(ADP-ribose) polymerase inhibitors” (Janssen Pharmaceutica, NV, priority 2004, dated 2011).

Tests used:
PARP-1 enzyme [1] = molecular target: T1, PARP-1 enzyme (Homo sapiens, UniProt P09874); experiment: In vitro Scintillation Proximity Assay (SPA) for PARP-1 inhibitory activity; assay type: biochemical; conditions: nicked DNA activated PARP-1, [3H]-NAD+, biotinylated histones; read-out: In vitro SPA pIC50 (converted)
T1 construct: made in house
Method in brief: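 Human PARP-1 (5–10 μg/ml), activated by nicked DNA (2 μg/ml), ADP-ribosylated biotinylated histones (2 μg/ml) using [3H]-NAD+ as donor for 15 min at room temperature in Tris pH 8/DTT/MgCl2. The reaction was stopped with NAD+ (2 mM final) and read by SPA scintillation counting. IC50 was interpolated from blank-corrected % of control and reported as pIC50.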

PARP-1 enzyme [2] = molecular target: T1, PARP-1 enzyme; experiment: In vitro filtration assay for PARP-1 inhibitory activity; assay type: biochemical; conditions: nicked DNA activated PARP-1, [32P]-NAD, histones; read-out: In vitro filtration assay pIC50 (converted)
Method: Compounds of the present invention were tested in an in vitro filtration assay assessing PARP-1 activity (triggered in the presence of nicked DNA) by means of its histone poly (ADP-ribosyl)ation activity using [^32P]-NAD as ADP-ribosyl donor. The radioactive ribosylated histones were precipitated by trichloroacetic acid (TCA) in 96-well filterplates and the incorporated [^32P] measured using a scintillation counter
A mixture of histones (stock solution: 5 mg/ml in H2O), NAD (stock solution: 100 mM in H2O), and [^32P]-NAD^+ in incubation buffer (50 mM Tris/HCl, pH 8; 0.2 mM DTT; 4 mM MgCl2) was made. A mixture of the PARP-1 enzyme (5-10 μg/ml) and nicked DNA was also made. The nicked DNA was prepared as described in the in vitro SPA for PARP-1 inhibitory activity. Seventy-five μl of the PARP-1 enzyme/DNA mixture together with 1 μl of compound in DMSO and 25 μl of histones-NAD^+/[^32P]-NAD^+ mixture was added per well of a 96-well filterplate (0.45 μm, supplier Millipore). The final concentrations in the incubation mixture were 2 μg/ml for the histones, 0.1 mM for the NAD^+, […] (0.5 μC) for the [^32P]-NAD^+ and 2 μg/ml for the nicked DNA. Plates were incubated for 15 min. at room temperature and the reaction was terminated by the addition of 10 μl ice cold 100% TCA followed by the addition of 10 μl ice-cold BSA solution (1% in H2O). The protein fraction was allowed to precipitate for 10 min. at 4° C. and plates were vacuum filtered. The plates were subsequently washed with, for each well, 1 ml of 10% ice cold TCA, 1 ml of 5% ice cold TCA and 1 ml of 5% TCA at room temperature. Finally 100 μl of scintillation solution (Microscint 40, Packard) was added to each well and the plates were transferred to a TopCountNXT™ (supplier: Packard) for scintillation counting and values were expressed as counts per minute (cpm). For each experiment, controls (containing PARP-1 enzyme and DMSO without compound), a blank incubation (containing DMSO but no PARP-1 enzyme or compound) and samples (containing PARP-1 enzyme and compound dissolved in DMSO) were run in parallel. All compounds tested were dissolved and eventually further diluted in DMSO. In first instance, compounds were tested at a concentration of 10^−5M. […] In each test, the blank value was subtracted from both the control and the sample values. The control sample represented maximal PARP-1 enzyme activity. For each sample, the amount of cpm was expressed as a percentage of the mean cpm value of the controls. When appropriate, IC50-values (concentration of the drug, needed to reduce the PARP-1 enzyme activity to 50% of the control) were computed using linear interpolation between the experimental points just above and below the 50% level. Herein the effects of test compounds are expressed as pIC50 (the negative log value of the IC50-value). As a reference compound, 4-amino-1,8-naphthalimide was included to validate the filtration assay.

[3] = system: infarct size in the heart; conditions: rabbits, cited from earlier work
colitis = conditions: rats, colitis by intraluminal trinitrobenzene sulfonic acid in 50% ethanol; cited from earlier work

T1 sequence (P09874 whole entry): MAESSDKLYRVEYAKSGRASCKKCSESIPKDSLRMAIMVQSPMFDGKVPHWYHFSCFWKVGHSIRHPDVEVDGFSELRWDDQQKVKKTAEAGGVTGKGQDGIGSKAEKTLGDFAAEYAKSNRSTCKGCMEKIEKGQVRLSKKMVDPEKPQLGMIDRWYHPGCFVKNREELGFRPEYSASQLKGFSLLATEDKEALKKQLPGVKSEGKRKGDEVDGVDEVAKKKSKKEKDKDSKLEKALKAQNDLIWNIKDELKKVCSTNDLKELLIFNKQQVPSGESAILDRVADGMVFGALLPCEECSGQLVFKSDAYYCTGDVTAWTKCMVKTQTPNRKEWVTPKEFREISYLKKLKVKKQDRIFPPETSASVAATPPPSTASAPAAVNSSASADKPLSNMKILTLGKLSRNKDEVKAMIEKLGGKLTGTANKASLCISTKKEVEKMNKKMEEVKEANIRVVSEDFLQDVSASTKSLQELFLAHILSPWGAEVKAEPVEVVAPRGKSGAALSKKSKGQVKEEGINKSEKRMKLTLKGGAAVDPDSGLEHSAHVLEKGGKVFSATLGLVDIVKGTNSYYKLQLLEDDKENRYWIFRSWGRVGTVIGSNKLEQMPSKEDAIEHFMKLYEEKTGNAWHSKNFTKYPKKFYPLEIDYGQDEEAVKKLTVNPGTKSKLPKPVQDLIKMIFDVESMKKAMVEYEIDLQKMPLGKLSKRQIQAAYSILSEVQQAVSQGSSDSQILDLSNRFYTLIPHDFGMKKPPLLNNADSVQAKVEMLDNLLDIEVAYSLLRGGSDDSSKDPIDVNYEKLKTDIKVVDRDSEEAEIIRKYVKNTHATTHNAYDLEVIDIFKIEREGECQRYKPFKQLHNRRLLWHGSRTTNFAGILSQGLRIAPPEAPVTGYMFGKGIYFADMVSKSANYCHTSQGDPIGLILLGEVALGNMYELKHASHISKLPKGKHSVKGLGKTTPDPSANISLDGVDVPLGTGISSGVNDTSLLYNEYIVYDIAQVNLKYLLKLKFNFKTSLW

Compound | IC50 (PARP-1 enzyme [1]) | melting point | IC50 (PARP-1 enzyme [2]) | reduction in infarct size ([3]; single injection 1 mg/kg) | reduction in infarct size in the heart ([3]; single injection 10 mg/kg, one minute before occlusion or one minute before reperfusion) | effect on inflammatory response, morphology and energetic status of the distal colon (colitis)
Cc1cc2cc(C(c3ccccc3)N(C)C)ccc2[nH]c1=O (stereo not shown) [Compound 6] | 957 nM | 226.7 °C | 3940 nM |  |  | 
CCc1cc2cc(C(OC(C)=O)c3ccccc3)ccc2[nH]c1=O (stereo not shown) [Compound 3] | 407 nM | 168.2 °C | 4340 nM |  |  | 
Cc1cc2cc(C(C#N)c3ccccc3)ccc2[nH]c1=O (stereo not shown) [Compound 4] | 435 nM | 227.5 °C | 2670 nM |  |  | 
Oc1cccc2c(O)nccc12 [1,5-dihydroxyisoquinoline] |  |  |  | 38-48% |  | 
Cc1cc2cc(C(c3ccccc3)n3cncn3)ccc2[nH]c1=O (stereo not shown) [Compound 5] | 1400 nM | 254.2 °C | 9440 nM |  |  | 
COCCNC1CCN(C(c2ccc3c(c2)OCCO3)c2ccc3[nH]c(=O)c4ccccc4c3c2)CC1 (stereo not shown) [Compound 11] | 7.29 nM | 116 °C |  |  |  | 
CCc1cc2cc(C(O)c3ccc4c(c3)OCO4)ccc2[nH]c1=O (stereo not shown) [Compound 12] | 40.1 nM | 211 °C |  |  |  | 
Cc1cc2cc(C(c3ccccc3)c3cncn3C)ccc2[nH]c1=O (stereo not shown) (hydrate or solvate) [Compound 10] |  | 240 °C |  |  |  | 
CCc1cc2cc(C(c3ccc4c(c3)OCCO4)C3CCN(C/C=C/c4ccccc4)CC3)ccc2[nH]c1=O (stereo not shown) [Compound 14] | 97.1 nM | 107 °C |  |  |  | 
CC(=O)NCC(c1ccccc1)c1ccc2[nH]c(=O)c(C)cc2c1 (stereo not shown) [Compound 8] | 213 nM | 206.2 °C | 2540 nM |  |  | 
NC(=O)c1cccc(N)c1 [3-amino-benzamide] |  |  |  |  | 32-42% | reduced the inflammatory response and restored the morphology and the energetic status of the distal colon
COC(c1ccccc1)c1ccc2[nH]c(=O)c(C)cc2c1 (stereo not shown) [Compound 9] | 1800 nM | 207.3 °C | 9400 nM |  |  | 
CCc1cc2cc(C(=O)c3ccc4c(c3)OCCO4)ccc2[nH]c1=O [Compound 2] | 735 nM | 255 °C |  |  |  | 
CNC(c1ccccc1)c1ccc2[nH]c(=O)c(C)cc2c1 (stereo not shown) [Compound 1] | 285 nM | 174.3 °C | 2330 nM |  |  | 

Further lines, with some results ahead:

IC50 (PARP-1 enzyme [1]) | melting point | IC50 (PARP-1 enzyme [2]) | Compound | reduction in infarct size ([3]; single injection 1 mg/kg) | reduction in infarct size in the heart ([3]; single injection 10 mg/kg, one minute before occlusion or one minute before reperfusion) | effect on inflammatory response, morphology and energetic status of the distal colon (colitis)
9.2 nM | 181 °C |  | CCc1cc2cc(C(CCN3CCCCC3)c3ccc4c(c3)OCCO4)ccc2[nH]c1=O (stereo not shown) [Compound 16] |  |  | 
366 nM | 188 °C | 4050 nM | CCc1nc2cc(C(c3ccc(Cl)cc3)n3cncn3)ccc2[nH]c1=O (stereo not shown) [Compound 22] |  |  | 
27.7 nM | 249 °C |  | CCc1cc2cc(C(=C3CCNCC3)c3ccc4c(c3)OCCO4)ccc2[nH]c1=O [Compound 131] |  |  | 
 | 172 °C |  | CCc1cc2cc([C@H](CCN3CCCCC3)c3ccc4c(c3)OCCO4)ccc2[nH]c1=O (single isomer, unassigned) [Compound 145] |  |  | 
191 nM | 194 °C |  | CCc1nc2cc(CC(c3ccc(Cl)cc3)N3CCCC3)ccc2[nH]c1=O (stereo not shown) [Compound 21] |  |  | 
124 nM | 219 °C |  | CCc1cc2cc(C(=C3CCN(CC(O)COc4ccc(OC)cc4)CC3)c3ccc4c(c3)OCCO4)ccc2[nH]c1=O (stereo not shown) [Compound 133] |  |  | 
275 nM | 270 °C | 1750 nM | CCc1nc2cc(CC(c3ccc(Cl)cc3)n3ccnc3)ccc2[nH]c1=O (stereo not shown) [Compound 20] |  |  | 
57.1 nM | 203 °C |  | CCc1cc2cc(C(=C3CCN(CCc4ccc(OC)cc4)CC3)c3ccc4c(c3)OCCO4)ccc2[nH]c1=O [Compound 132] |  |  | 
19.5 nM | > 260 °C |  | CCc1cc2cc(C(NC=O)c3ccc4c(c3)OCCO4)ccc2[nH]c1=O (stereo not shown) [Compound 18] |  |  | 
256 nM | 204 °C |  | CCc1nc2cc(CC(O)c3ccc(Cl)cc3)ccc2[nH]c1=O (stereo not shown) [Compound 19] |  |  | 
152 nM | 220.1 °C | 619 nM | CCc1cc2cc(C(c3ccccc3)n3ccnc3)ccc2[nH]c1=O (stereo not shown) [Compound 17] |  |  | 
 | 159 °C |  | CCc1cc2cc([C@@H](CCN3CCCCC3)c3ccc4c(c3)OCCO4)ccc2[nH]c1=O (single isomer, unassigned) [Compound 144] |  |  | 
